Reference: PubChem BioAssay (NCI)
Values joined by “and” are separate entries in the source; they are usually repeats but may differ in a detail not shown here. Equal entries are not always repeated.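 Following 48 hours of exposure in 96-well plates, responses at five concentrations were used to interpolate endpoints linearly. Abbreviation: GI50, concentration required for 50% inhibition of growth. TGI marks complete inhibition of growth.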

How the values were obtained:
Assay in all cases: DTP human tumour cell line panel, 48 h
SF-268 CNS = tested on: SF-268 CNS
CAKI-1 renal = tested on: CAKI-1 renal
MOLT-4 leukemia = tested on: MOLT-4 leukemia
SK-MEL-5 melanoma = tested on: SK-MEL-5 melanoma
HOP-92 NSCLC = tested on: HOP-92 NSCLC
NCI-H522 lung = tested on: NCI-H522 lung
SK-OV-3 ovarian = tested on: SK-OV-3 ovarian
MALME-3M melanoma = tested on: MALME-3M melanoma
PC-3 prostate = tested on: PC-3 prostate
T-47D breast = tested on: T-47D breast

CC(C)C1=CC23CCC4C(C)(C(=O)O)CCCC4(C)C2CC1C1C(=O)N(c2ccccc2)C(=O)C13 (centres undefined)
TGI (SF-268 CNS): > 100 µM
TGI (CAKI-1 renal): > 100 µM
TGI (MOLT-4 leukemia): > 100 µM
TGI (SK-MEL-5 melanoma): > 100 µM
TGI (HOP-92 NSCLC): 97.4 µM
TGI (NCI-H522 lung): > 100 µM
TGI (SK-OV-3 ovarian): > 100 µM
TGI (MALME-3M melanoma): > 100 µM

CC(C)C(/C=C/c1ccc(Cl)c(Cl)c1)=N\NC(=O)N/N=C(/C=C/c1ccc(Cl)c(Cl)c1)C(C)C
TGI (SF-268 CNS): > 100 µM
TGI (PC-3 prostate): > 100 µM
TGI (CAKI-1 renal): > 100 µM
TGI (MOLT-4 leukemia): > 100 µM
TGI (SK-MEL-5 melanoma): > 100 µM
TGI (HOP-92 NSCLC): > 100 µM
TGI (NCI-H522 lung): > 100 µM
TGI (SK-OV-3 ovarian): > 100 µM
TGI (MALME-3M melanoma): > 100 µM

O=C1OC(=O)c2cc(S(=O)(=O)c3ccc4c(c3)C(=O)OC4=O)ccc21
TGI (SF-268 CNS): > 100 µM
TGI (PC-3 prostate): > 100 µM
TGI (CAKI-1 renal): > 100 µM
TGI (SK-MEL-5 melanoma): > 100 µM
TGI (T-47D breast): > 100 µM
TGI (NCI-H522 lung): > 100 µM
TGI (SK-OV-3 ovarian): > 100 µM
TGI (MALME-3M melanoma): > 100 µM

O=C1c2cc(Cl)ccc2NC(=NCCCl)C2CSCN12 (centres undefined)
TGI (SF-268 CNS): > 100 µM
TGI (PC-3 prostate): > 100 µM
TGI (CAKI-1 renal): > 100 µM
TGI (MOLT-4 leukemia): > 100 µM
TGI (SK-MEL-5 melanoma): > 100 µM
TGI (T-47D breast): > 100 µM
TGI (NCI-H522 lung): > 100 µM
TGI (SK-OV-3 ovarian): > 100 µM
TGI (MALME-3M melanoma): > 100 µM

CC(C)C(N)=O
TGI (SF-268 CNS): > 5000 µM
TGI (CAKI-1 renal): > 5000 µM
TGI (MOLT-4 leukemia): > 5000 µM
TGI (SK-MEL-5 melanoma): > 5000 µM
TGI (HOP-92 NSCLC): > 5000 µM
TGI (NCI-H522 lung): > 5000 µM
TGI (SK-OV-3 ovarian): > 5000 µM
TGI (MALME-3M melanoma): > 5000 µM

Nc1nn2c(nc(N)c3c(N)[nH]nc32)c1N=Nc1ccc(Br)cc1
TGI (SF-268 CNS): 36.1 µM
TGI (PC-3 prostate): > 100 µM
TGI (CAKI-1 renal): > 100 µM
TGI (MOLT-4 leukemia): > 25.9 µM
TGI (SK-MEL-5 melanoma): > 100 µM
TGI (HOP-92 NSCLC): 28.1 µM
TGI (NCI-H522 lung): 76.9 µM
TGI (SK-OV-3 ovarian): > 100 µM
TGI (MALME-3M melanoma): 18.4 µM

CN(c1ccccc1Cl)S(=O)(=O)c1ccc([N+](=O)[O-])cc1
TGI (SF-268 CNS): > 100 µM
TGI (PC-3 prostate): > 100 µM
TGI (CAKI-1 renal): > 100 µM
TGI (MOLT-4 leukemia): > 100 µM
TGI (SK-MEL-5 melanoma): > 100 µM
TGI (T-47D breast): > 100 µM
TGI (NCI-H522 lung): > 100 µM
TGI (SK-OV-3 ovarian): > 100 µM
TGI (MALME-3M melanoma): > 100 µM

CC1=C(C(=O)c2ccccc2)C23C(=O)N(c4ccccc4)C(=O)C2=C(O)C=CC3(O)N1 (centres undefined)
TGI (SF-268 CNS): > 100 µM
TGI (PC-3 prostate): > 100 µM
TGI (CAKI-1 renal): > 100 µM
TGI (SK-MEL-5 melanoma): 41.9 µM
TGI (HOP-92 NSCLC): 60 µM
TGI (T-47D breast): > 100 µM
TGI (NCI-H522 lung): 28.9 µM
TGI (MALME-3M melanoma): 65.1 µM

Cc1csc(/N=C\c2c(O)c3ccccc3oc2=O)n1
TGI (SF-268 CNS): > 100 µM
TGI (PC-3 prostate): > 100 µM
TGI (CAKI-1 renal): 34.1 µM
TGI (MOLT-4 leukemia): > 100 µM
TGI (SK-MEL-5 melanoma): > 100 µM
TGI (HOP-92 NSCLC): 89.8 µM
TGI (NCI-H522 lung): > 100 µM
TGI (SK-OV-3 ovarian): 45.6 µM
TGI (MALME-3M melanoma): 70.3 µM

S=C(c1c[nH]c2ccccc12)N1CCN(Cc2ccccc2)CC1
TGI (SF-268 CNS): 35.6 µM
TGI (PC-3 prostate): 30.8 µM
TGI (CAKI-1 renal): 56.1 µM
TGI (MOLT-4 leukemia): 47.5 µM
TGI (SK-MEL-5 melanoma): 24.5 µM
TGI (SK-OV-3 ovarian): 51.4 µM
TGI (MALME-3M melanoma): 33.7 µM

CC1=Nc2sc3c(c2C2=NCCN12)CCCC3
TGI (SF-268 CNS): > 100 µM
TGI (PC-3 prostate): 65.9 µM
TGI (CAKI-1 renal): 50.6 µM
TGI (MOLT-4 leukemia): 60.5 µM
TGI (SK-MEL-5 melanoma): 77.4 µM
TGI (T-47D breast): 88 µM
TGI (NCI-H522 lung): 41 µM
TGI (MALME-3M melanoma): 71.3 µM

N#Cc1c(-c2ccccc2)[nH]c(=O)n(C2OC(CO)C(O)C(O)C2O)c1=O (centres undefined)
TGI (SF-268 CNS): > 100 µM
TGI (PC-3 prostate): > 100 µM
TGI (CAKI-1 renal): > 100 µM
TGI (MOLT-4 leukemia): > 100 µM
TGI (SK-MEL-5 melanoma): > 100 µM
TGI (HOP-92 NSCLC): > 100 µM
TGI (T-47D breast): > 100 µM
GI50 (NCI-H522 lung): 27.6 µM and > 100 µM
TGI (NCI-H522 lung): 63.5 µM and > 100 µM
TGI (SK-OV-3 ovarian): > 100 µM

CCCCCCCCCCCCCCCCOC[C@@H](COC(c1ccccc1)(c1ccccc1)c1ccccc1)O[P+](=S)OC (some centres undefined)
TGI (SF-268 CNS): 28.6 µM
TGI (PC-3 prostate): 18.9 µM
TGI (CAKI-1 renal): 23.8 µM
TGI (MOLT-4 leukemia): 53.1 µM
TGI (SK-MEL-5 melanoma): 22.4 µM
TGI (HOP-92 NSCLC): 26.2 µM
TGI (T-47D breast): 45 µM
TGI (NCI-H522 lung): 27.5 µM
TGI (SK-OV-3 ovarian): 19.8 µM

NNC(=O)c1nnn(CCc2ccccc2)c1C(=O)NN
TGI (PC-3 prostate): > 100 µM
TGI (CAKI-1 renal): > 100 µM
TGI (MOLT-4 leukemia): > 100 µM
TGI (SK-MEL-5 melanoma): > 100 µM
TGI (MALME-3M melanoma): > 100 µM

Nc1ccc(C(=O)c2cn(CCN3CCOCC3)c3ccccc23)c2ccccc12
TGI (SF-268 CNS): > 100 µM
TGI (PC-3 prostate): > 100 µM
TGI (CAKI-1 renal): > 100 µM
TGI (MOLT-4 leukemia): 52.5 µM
TGI (SK-MEL-5 melanoma): 51.5 µM
TGI (T-47D breast): 72.8 µM
TGI (NCI-H522 lung): > 100 µM
TGI (SK-OV-3 ovarian): > 100 µM
TGI (MALME-3M melanoma): > 100 µM

c1csc(C[N+]23CN4CN(CN(C4)C2)C3)c1
TGI (SF-268 CNS): > 100 µM
TGI (CAKI-1 renal): 59.5 µM
TGI (MOLT-4 leukemia): 44.6 µM
TGI (SK-MEL-5 melanoma): 35.8 µM
TGI (HOP-92 NSCLC): 44.9 µM
TGI (NCI-H522 lung): > 100 µM
TGI (MALME-3M melanoma): 33.2 µM

Cc1ccc(N(CC(=O)Nc2ccc(S(=O)(=O)N3CCC(N4CCCC4)CC3)cc2)S(=O)(=O)c2ccc(Cl)cc2)cc1
GI50 (SF-268 CNS): 1.61 µM
TGI (SF-268 CNS): 3.29 µM
GI50 (PC-3 prostate): 1.88 µM
TGI (PC-3 prostate): 4.05 µM
GI50 (CAKI-1 renal): 1.65 µM
TGI (CAKI-1 renal): 3.31 µM
GI50 (MOLT-4 leukemia): 1.87 µM
TGI (MOLT-4 leukemia): 4.98 µM
GI50 (SK-MEL-5 melanoma): 1.73 µM
TGI (SK-MEL-5 melanoma): 3.14 µM
GI50 (HOP-92 NSCLC): 1.19 µM
TGI (HOP-92 NSCLC): 2.71 µM
GI50 (T-47D breast): 1.74 µM
TGI (T-47D breast): 3.91 µM
GI50 (NCI-H522 lung): 1.89 µM
TGI (NCI-H522 lung): 3.77 µM
GI50 (SK-OV-3 ovarian): 1.82 µM
TGI (SK-OV-3 ovarian): 3.29 µM

CC(=O)NC1=C[C@@H]([C@H]2COC(C)(C)O2)OC1=O
TGI (SF-268 CNS): > 100 µM
TGI (CAKI-1 renal): > 100 µM
TGI (MOLT-4 leukemia): > 100 µM
TGI (SK-MEL-5 melanoma): > 100 µM
TGI (HOP-92 NSCLC): > 100 µM
TGI (NCI-H522 lung): > 100 µM
TGI (SK-OV-3 ovarian): > 100 µM
TGI (MALME-3M melanoma): > 100 µM

O=C1CCCCCCCCCCC1CN1CCCCC1 (centres undefined)
TGI (SF-268 CNS): > 100 µM
TGI (MOLT-4 leukemia): > 100 µM
TGI (SK-MEL-5 melanoma): 28.3 µM
TGI (NCI-H522 lung): > 100 µM
TGI (MALME-3M melanoma): > 100 µM

O=C(O)Cc1ccc2[nH]c(O)c(C3=Nc4ccccc4C3=O)c2c1
TGI (SF-268 CNS): > 100 µM
TGI (PC-3 prostate): > 100 µM
TGI (CAKI-1 renal): > 100 µM
TGI (MOLT-4 leukemia): > 100 µM
TGI (SK-MEL-5 melanoma): 55.6 µM
TGI (T-47D breast): > 100 µM
TGI (NCI-H522 lung): > 100 µM
TGI (SK-OV-3 ovarian): 94.8 µM
TGI (MALME-3M melanoma): > 100 µM

CC(=O)N=C1N(/C=C2\C(=O)Oc3ccccc3C2=O)C(=O)/C(=C/c2ccc(NC(C)=O)cc2)N1C
TGI (SF-268 CNS): > 100 µM
TGI (PC-3 prostate): > 100 µM
TGI (CAKI-1 renal): > 100 µM
TGI (MOLT-4 leukemia): > 100 µM
TGI (SK-MEL-5 melanoma): > 100 µM
TGI (T-47D breast): > 100 µM
TGI (NCI-H522 lung): > 100 µM
TGI (SK-OV-3 ovarian): > 100 µM
TGI (MALME-3M melanoma): > 100 µM

NC1=CN2c3ccccc3N(CC(=O)O)C2C=C1 (centres undefined)
TGI (SF-268 CNS): > 100 µM
TGI (PC-3 prostate): > 100 µM
TGI (CAKI-1 renal): > 100 µM
TGI (MOLT-4 leukemia): > 100 µM
TGI (SK-MEL-5 melanoma): > 100 µM
TGI (HOP-92 NSCLC): > 100 µM
TGI (T-47D breast): > 100 µM
TGI (SK-OV-3 ovarian): > 100 µM
TGI (MALME-3M melanoma): > 100 µM

CC1C2(C)OC(=N)C(C#N)(C(c3cccc([N+](=O)[O-])c3)O2)C1(C#N)C#N (centres undefined)
TGI (SF-268 CNS): > 100 µM
TGI (PC-3 prostate): > 100 µM
TGI (CAKI-1 renal): 24.4 µM
TGI (MOLT-4 leukemia): > 100 µM
TGI (SK-MEL-5 melanoma): 20.9 µM
TGI (HOP-92 NSCLC): 33.1 µM
TGI (T-47D breast): 35.9 µM
TGI (SK-OV-3 ovarian): > 100 µM
TGI (MALME-3M melanoma): 73 µM
